Earlier results as cited in patent publication US20100092556A1, “ALFUZOSIN FORMULATIONS, METHODS OF MAKING, AND METHODS OF USE” (priority 2006, published 2010).
Where a name gives a salt, the structure may show the parent alone.

What was measured:
[1] = oral administration

| administered dose excreted unchanged in the urine [1] [%] | solubility in alcohol | solubility in dichloromethane | solubility in water | Compound |
| --- | --- | --- | --- | --- |
| 11 |  |  |  | COc1cc2nc(N(C)CCCNC(=O)C3CCCO3)nc(N)c2cc1OC (racemic) [alfuzosin, (R,S)—N-[3-[(4-amino-6,7-dimethoxy-2-quinazolinyl)methylamino]propyl]tetrahydro-2-furancarboxamide] |
|  | sparingly soluble | practically insoluble | freely soluble | COc1cc2nc(N(C)CCCNC(=O)C3CCCO3)nc(N)c2cc1OC (racemic) [Alfuzosin hydrochloride, (R,S)—N-[3-[(4-amino-6,7-dimethoxy-2-quinazolinyl)methylamino]propyl]tetrahydro-2-furancarboxamide hydrochloride] |
